# In ChEMBL document CHEMBL5321202, “Design, synthesis and anti-AD effects of dual inhibitor targeting glutaminyl cyclase/GSK-3β” (Eur J Med Chem, 2023):
# Calls of active or inactive are those of the source. The calls are words filed in the database; no cut-off is given here.
# Columns and labels:
# [1] = biological target: Glycogen synthase kinase-3 beta (Homo sapiens, UniProt P49841); test: Inhibition of GSK3beta (unknown origin) activity assessed as fluorescence intensity by ADP-Glo Kinase Assay
# [2] = biological target: Glutaminyl-peptide cyclotransferase (Homo sapiens, UniProt Q16769); test: Inhibition of human glutaminyl cyclase activity assessed as fluorescence using H-Gln-AMC substrate
# [3] = In vivo inhibition of GSK3beta activity in cortex region of 3 x Tg-AD mouse model at 8 mg/kg, ip every 48 hrs once for 45 days by Western blot analysis relative to control; format: functional; set-up: scale not given: the % may be the effect or the level left; conditions: time 45 day
# [4] = species: Mus musculus; conditions: dose 8.0 mg/kg, route ip, time 45.0 day
# Glycogen synthase kinase-3 beta, sequence (P49841 whole entry): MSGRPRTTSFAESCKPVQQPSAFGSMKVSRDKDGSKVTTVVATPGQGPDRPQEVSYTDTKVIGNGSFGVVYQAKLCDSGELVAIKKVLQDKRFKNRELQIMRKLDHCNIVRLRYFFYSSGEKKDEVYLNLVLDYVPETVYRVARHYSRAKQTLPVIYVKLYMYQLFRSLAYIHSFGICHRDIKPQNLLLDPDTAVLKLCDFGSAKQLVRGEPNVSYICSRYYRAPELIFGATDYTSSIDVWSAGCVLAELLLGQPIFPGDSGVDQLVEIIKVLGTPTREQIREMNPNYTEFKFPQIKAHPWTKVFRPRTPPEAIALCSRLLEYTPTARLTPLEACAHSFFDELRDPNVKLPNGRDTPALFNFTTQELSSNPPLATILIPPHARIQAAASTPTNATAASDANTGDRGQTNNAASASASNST
# Glutaminyl-peptide cyclotransferase, sequence (Q16769 whole entry): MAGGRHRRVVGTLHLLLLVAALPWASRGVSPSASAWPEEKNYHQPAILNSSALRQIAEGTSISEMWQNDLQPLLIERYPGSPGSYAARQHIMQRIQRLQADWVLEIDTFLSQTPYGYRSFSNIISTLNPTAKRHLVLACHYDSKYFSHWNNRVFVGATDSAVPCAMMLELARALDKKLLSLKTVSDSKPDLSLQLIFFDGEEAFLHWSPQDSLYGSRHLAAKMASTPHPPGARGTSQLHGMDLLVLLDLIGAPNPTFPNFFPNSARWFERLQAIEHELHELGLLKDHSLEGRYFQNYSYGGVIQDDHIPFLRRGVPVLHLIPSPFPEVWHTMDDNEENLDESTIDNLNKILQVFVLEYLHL
Compound,IC50 [1],IC50 [2],Activity [3],inhibition [4]
Cc1ccc2c(c1)c(C1=C(c3ccccc3[N+](=O)[O-])C(=O)NC1=O)cn2CCCn1ccnc1,8.15 µM,3.62 µM,–,–
COc1ccc2c(c1)c(C1=C(c3ccc(C)cc3)C(=O)NC1=O)cn2CCCn1ccnc1,0.099 µM,9 µM,–,–
COc1ccc2c(c1)c(C1=C(c3ccccc3C)C(=O)NC1=O)cn2CCCn1ccnc1,8.01 µM,4.34 µM,–,–
O=C1NC(=O)C(c2cn(CCCn3ccnc3)c3ccc(Br)cc23)=C1c1cccs1,0.09 µM,1.04 µM,–,–
O=C1NC(=O)C(c2cn(CCCn3ccnc3)c3ccccc23)=C1c1ccc(F)cc1,0.057 µM,1.34 µM,73.4%,Active
COc1ccc2c(c1)c(C1=C(c3ccccc3F)C(=O)NC1=O)cn2CCCn1ccnc1,20.8 µM,3.65 µM,–,–
O=C1NC(=O)C(c2cn(CCCn3ccnc3)c3ccc(Br)cc23)=C1c1cc(C(F)(F)F)cc(C(F)(F)F)c1,0.59 µM,6.88 µM,–,–
COc1ccc(C2=C(c3cn(CCCn4ccnc4)c4cc(C)ccc34)C(=O)NC2=O)cc1,0.097 µM,7.01 µM,–,–
Cc1ccc(C2=C(c3cn(CCCn4ccnc4)c4cc(Br)ccc34)C(=O)NC2=O)cc1,0.38 µM,3.44 µM,–,–
O=C1NC(=O)C(c2cn(CCCn3ccnc3)c3cc(Br)ccc23)=C1c1ccccc1F,0.06 µM,4.77 µM,–,–
O=C1NC(=O)C(c2cn(CCCn3ccnc3)c3ccccc23)=C1c1ccccc1,0.014 µM,2.8 µM,–,–
COc1ccccc1C1=C(c2cn(CCCn3ccnc3)c3ccc(C)cc23)C(=O)NC1=O,0.065 µM,8.12 µM,–,–
Cc1ccc2c(c1)c(C1=C(c3ccc4ccccc4c3)C(=O)NC1=O)cn2CCCn1ccnc1,5.14 µM,3.44 µM,–,–
COc1ccc2c(c1)c(C1=C(c3ccccc3[N+](=O)[O-])C(=O)NC1=O)cn2CCCn1ccnc1,0.034 µM,9.91 µM,–,–
Cc1ccc2c(c1)c(C1=C(c3ccc(F)cc3)C(=O)NC1=O)cn2CCCn1ccnc1,23.3 µM,4.36 µM,–,–
O=C1NC(=O)C(c2cn(CCCn3ccnc3)c3ccccc23)=C1c1ccccc1[N+](=O)[O-],35.1 µM,2.26 µM,–,–
Cc1ccccc1C1=C(c2cn(CCCn3ccnc3)c3ccc(Br)cc23)C(=O)NC1=O,0.087 µM,5.12 µM,–,–
COc1ccc(C2=C(c3cn(CCCn4ccnc4)c4ccc(OC)cc34)C(=O)NC2=O)cc1,0.014 µM,5.9 µM,–,–
COc1ccccc1C1=C(c2cn(CCCn3ccnc3)c3ccc(Br)cc23)C(=O)NC1=O,5.2 µM,6.62 µM,–,–
O=C1NC(=O)C(c2cn(CCCn3ccnc3)c3ccccc23)=C1c1ccccc1F,17.7 µM,2.37 µM,–,–
COc1ccc2c(C3=C(c4ccccc4F)C(=O)NC3=O)cn(CCCn3ccnc3)c2c1,0.011 µM,10.8 µM,–,–
Cc1ccc(C2=C(c3cn(CCCn4ccnc4)c4ccc(C)cc34)C(=O)NC2=O)cc1,7.75 µM,5.47 µM,–,–
COc1ccc2c(c1)c(C1=C(c3ccccc3OC)C(=O)NC1=O)cn2CCCn1ccnc1,19.8 µM,2.44 µM,–,–
Cc1ccccc1C1=C(c2cn(CCCn3ccnc3)c3ccccc23)C(=O)NC1=O,26.7 µM,4.18 µM,–,–
CC(C)(C)c1ccc(C2=C(c3cn(CCCn4ccnc4)c4ccc(Br)cc34)C(=O)NC2=O)cc1,0.42 µM,8.17 µM,–,–
O=C1NC(=O)C(c2cn(CCCn3ccnc3)c3ccc(Br)cc23)=C1c1ccc2ccccc2c1,0.069 µM,2.98 µM,–,–
Cc1ccc2c(c1)c(C1=C(c3ccccc3C)C(=O)NC1=O)cn2CCCn1ccnc1,0.073 µM,3.84 µM,–,–

Compound,IC50 [1],IC50 [2],Activity [3],inhibition [4]
Cc1ccc(C2=C(c3cn(CCCn4ccnc4)c4cc(C)ccc34)C(=O)NC2=O)cc1,0.048 µM,11.9 µM,–,–
O=C1NC(=O)C(c2cn(CCCn3ccnc3)c3ccc(Br)cc23)=C1c1ccccc1[N+](=O)[O-],0.066 µM,4.28 µM,–,–
O=C1NC(=O)C(c2cn(CCCn3ccnc3)c3ccc(Br)cc23)=C1c1ccc(F)cc1,0.14 µM,2.55 µM,–,–
COc1ccccc1C1=C(c2cn(CCCn3ccnc3)c3ccccc23)C(=O)NC1=O,19 µM,7.32 µM,–,–
O=C1NC(=O)C(c2cn(CCCn3ccnc3)c3ccc(Br)cc23)=C1c1ccccc1,0.069 µM,1.76 µM,–,–
O=C1NC(=O)C(c2cn(CCCn3ccnc3)c3ccccc23)=C1c1ccc2ccccc2c1,9.19 µM,3.51 µM,–,–
O=C1NC(=O)C(c2cn(CCCn3ccnc3)c3cc(Br)ccc23)=C1c1ccc(F)cc1,0.72 µM,2.81 µM,–,–
COc1ccc2c(c1)c(C1=C(c3ccc(F)cc3)C(=O)NC1=O)cn2CCCn1ccnc1,0.15 µM,0.36 µM,–,–
O=C1NC(=O)C(c2cn(CCCn3ccnc3)c3ccccc23)=C1c1c[nH]c2ccccc12,22.8 µM,4.27 µM,–,–
COc1ccc(C2=C(c3cn(CCCn4ccnc4)c4ccccc34)C(=O)NC2=O)cc1,0.04 µM,7.46 µM,–,–
COc1ccc(C2=C(c3cn(CCCn4ccnc4)c4ccc(C)cc34)C(=O)NC2=O)cc1,19.9 µM,6.13 µM,–,–
COc1ccc(C2=C(c3cn(CCCn4ccnc4)c4ccc(Br)cc34)C(=O)NC2=O)cc1,0.11 µM,2.33 µM,–,–
Cc1ccc2c(C3=C(c4ccccc4[N+](=O)[O-])C(=O)NC3=O)cn(CCCn3ccnc3)c2c1,0.1 µM,69.1 µM,–,–
O=C1NC(=O)C(c2cn(CCCn3ccnc3)c3cc(Br)ccc23)=C1c1ccc2ccccc2c1,0.1 µM,3.98 µM,–,–
Cc1ccc2c(C3=C(c4ccc5ccccc5c4)C(=O)NC3=O)cn(CCCn3ccnc3)c2c1,0.14 µM,10.8 µM,–,–
Cc1ccccc1C1=C(c2cn(CCCn3ccnc3)c3cc(Br)ccc23)C(=O)NC1=O,0.14 µM,3.85 µM,–,–
O=C1NC(=O)C(c2cn(CCCn3ccnc3)c3ccc(Br)cc23)=C1c1cc(F)c(F)cc1F,0.12 µM,2.35 µM,–,–
COc1ccc(C2=C(c3cn(CCCn4ccnc4)c4cc(Br)ccc34)C(=O)NC2=O)cc1,0.23 µM,2.59 µM,–,–
COc1ccccc1C1=C(c2cn(CCCn3ccnc3)c3cc(Br)ccc23)C(=O)NC1=O,0.021 µM,21.7 µM,–,–
O=C1NC(=O)C(c2cn(CCCn3ccnc3)c3ccc(Br)cc23)=C1c1ccccc1F,0.032 µM,4.7 µM,–,–
Cc1ccc2c(c1)c(C1=C(c3ccccc3F)C(=O)NC1=O)cn2CCCn1ccnc1,47.1 µM,3.39 µM,–,–
COc1ccc2c(c1)c(C1=C(c3ccc4ccccc4c3)C(=O)NC1=O)cn2CCCn1ccnc1,0.059 µM,4.97 µM,–,–
COc1ccc(C2=C(c3cn(CCCn4ccnc4)c4ccc(Br)cc34)C(=O)NC2=O)cc1OC,0.051 µM,3.16 µM,–,–
Cc1ccc(C2=C(c3cn(CCCn4ccnc4)c4ccccc34)C(=O)NC2=O)cc1,15.4 µM,4.34 µM,–,–
Cc1cc(C)c(C2=C(c3cn(CCCn4ccnc4)c4ccc(Br)cc34)C(=O)NC2=O)c(C)c1,0.11 µM,2.34 µM,–,–
Cc1ccc(C2=C(c3cn(CCCn4ccnc4)c4ccc(Br)cc34)C(=O)NC2=O)cc1,0.19 µM,2.08 µM,–,–
O=C1NC(=O)C(c2cn(CCCn3ccnc3)c3ccc(Br)cc23)=C1c1ccc2c(c1)OCO2,0.044 µM,2.51 µM,–,–
